Experimental data: patent US9643970B2, “Substituted imidazo [1,5-a]pyrazines as PDE9 inhibitors” (H Lundbeck A/S, priority 2012, dated 2017)
Like-named read-outs stand apart in the source and are kept apart here.

Target: PDE9 (Homo sapiens, UniProt O76083)
Test: PDE9 inhibition assay
Format: biochemical
Experimental: Reactions are initiated by addition of the cyclic nucleotide substrate, and reactions are allowed to proceed for one hr at room temperature before being terminated through mixing with 15 uL 8 mg/mL yttrium silicate SPA beads (Amersham). […] IC50 values were calculated by non linear regression using XLfit (IDBS).

[1] = SPA assay, 10 nM 3H-cAMP, 1 hour incubation, read-out: IC50

Chain of PDE9 (O76083 whole entry): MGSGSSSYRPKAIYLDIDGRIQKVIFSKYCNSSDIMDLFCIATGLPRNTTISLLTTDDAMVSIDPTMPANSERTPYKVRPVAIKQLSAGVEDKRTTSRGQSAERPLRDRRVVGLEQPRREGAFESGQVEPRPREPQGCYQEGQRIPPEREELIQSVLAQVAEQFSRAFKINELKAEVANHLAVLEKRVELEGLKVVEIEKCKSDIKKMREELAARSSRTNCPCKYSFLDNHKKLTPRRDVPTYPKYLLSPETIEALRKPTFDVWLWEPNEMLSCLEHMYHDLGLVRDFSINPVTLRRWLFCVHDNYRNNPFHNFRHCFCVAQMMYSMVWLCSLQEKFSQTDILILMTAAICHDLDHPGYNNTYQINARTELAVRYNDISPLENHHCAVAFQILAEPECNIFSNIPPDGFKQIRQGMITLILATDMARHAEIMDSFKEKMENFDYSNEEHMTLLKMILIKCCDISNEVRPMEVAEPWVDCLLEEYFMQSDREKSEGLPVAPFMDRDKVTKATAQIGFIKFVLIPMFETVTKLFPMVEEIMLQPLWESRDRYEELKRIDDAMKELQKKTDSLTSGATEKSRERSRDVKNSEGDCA

SMILES | IC50 [1] [nM] | IC50 [nM]
CC(c1cn2c(C3CCOCC3)ncc2c(=O)[nH]1)N1CC(c2ncccn2)C1 (stereo not drawn) [Compound 91, 6-[1-(3-pyrimidin-2-ylazetidin-1-yl)ethyl]-3-tetrahydropyran-4-yl-7h-imidazo[1,5-a]pyrazin-8-one] | 46 | 
O=c1[nH]c(CN2CC(c3ccc(F)cc3)C2)cn2c(C3CCOCC3)ncc12 [Compound 44, 6-[[3-(4-fluorophenyl)azetidin-1-yl]methyl]-3-tetrahydropyran-4-yl-7h-imidazo[1,5-a]pyrazin-8-one] | 25 | 
CC(c1cn2c(-c3ccccc3)ncc2c(=O)[nH]1)N1CC(Oc2cccc(F)c2)C1 (stereo not drawn) [Compound 24, 6-[1-[3-(3-fluorophenoxy)azetidin-1-yl]ethyl]-3-phenyl-7h-imidazo[1,5-a]pyrazin-8-one] | 25 | 
CC(c1cn2c(-c3ccccc3)ncc2c(=O)[nH]1)N1CC(Oc2ncccn2)C1 (stereo not drawn) [Compound 7, 3-phenyl-6-[1-(3-pyrimidin-2-yloxyazetidin-1-yl)ethyl]-7h-imidazo[1,5-a]pyrazin-8-one] | 14 | 
O=c1[nH]c(CN2CC(OCc3ccccc3)C2)cn2c(C3CCCC3)ncc12 [Compound 56, 6-[(3-benzyloxyazetidin-1-yl)methyl]-3-cyclopentyl-7h-imidazo[1,5-a]pyrazin-8-one] |  | 50
CC(c1cn2c(-c3ccc(F)cc3)ncc2c(=O)[nH]1)N1CC(Oc2ccc(OC(F)(F)F)cc2)C1 (stereo not drawn) [Compound 120, 3-(4-fluorophenyl)-6-[1-[3-[4-(trifluoromethoxy)phenoxy]azetidin-1-yl]ethyl]-7h-imidazo[1,5-a]pyrazin-8-one] | 35 | 
CC1CN(Cc2ccc(C(F)(F)F)nc2)CC1c1cn2c(C3CCOCC3)ncc2c(=O)[nH]1 (stereo not drawn) [Compound 79, 6-[4-methyl-1-[[6-(trifluoromethyl)-3-pyridyl]methyl]pyrrolidin-3-yl]-3-tetrahydropyran-4-yl-7h-imidazo[1,5-a]pyrazin-8-one] | 23 | 
COc1ccc(C2CN(C(C)c3cn4c(-c5ccc(F)cc5)ncc4c(=O)[nH]3)C2)cc1 (stereo not drawn) [Compound 126, 3-(4-fluorophenyl)-6-[1-[3-(4-methoxyphenyl)azetidin-1-yl]ethyl]-7h-imidazo[1,5-a]pyrazin-8-one] |  | 70
COC(=O)C1CN(Cc2ccccc2)CC1c1cn2c(-c3ccccc3)ncc2c(=O)[nH]1 (stereo not drawn) [Compound 10, methyl 1-benzyl-4-(8-oxo-3-phenyl-7h-imidazo[1,5-a]pyrazin-6-yl)pyrrolidine-3-carboxylate] | 43 | 
O=c1[nH]c(CN2CC(Oc3cccc(F)c3)C2)cn2c(C3CCOCC3)ncc12 [Compound 71, 6-[[3-(3-fluorophenoxy)azetidin-1-yl]methyl]-3-tetrahydropyran-4-yl-7h-imidazo[1,5-a]pyrazin-8-one] |  | 7
COc1ccc(C2CN(Cc3cn4c(-c5ccc(F)cc5)ncc4c(=O)[nH]3)C2)cc1 [Compound 123, 3-(4-fluorophenyl)-6-[[3-(4-methoxyphenyl)azetidin-1-yl]methyl]-7h-imidazo[1,5-a]pyrazin-8-one] |  | 57
O=c1[nH]c(CN2CC(Oc3ccc(F)cc3)C2)cn2c(C3CCOCC3)ncc12 [Compound 75, 6-[[3-(4-fluorophenoxy)azetidin-1-yl]methyl]-3-tetrahydropyran-4-yl-7h-imidazo[1,5-a]pyrazin-8-one] |  | 115
O=c1[nH]c(CN2CCC(Oc3ncccn3)C2)cn2c(C3CCOCC3)ncc12 (stereo not drawn) [Compound 84, 6-[(3-pyrimidin-2-yloxypyrrolidin-1-yl)methyl]-3-tetrahydropyran-4-yl-7h-imidazo[1,5-a]pyrazin-8-one] | 110 | 
COc1ccc(C2CN(Cc3cn4c(C5CCOCC5)ncc4c(=O)[nH]3)C2)cc1 [Compound 69, 6-[[3-(4-methoxyphenyl)azetidin-1-yl]methyl]-3-tetrahydropyran-4-yl-7h-imidazo[1,5-a]pyrazin-8-one] |  | 30
O=c1[nH]c(CN2CC(Oc3ccc(F)cc3)C2)cn2c(-c3ccccc3)ncc12 [Compound 23, 6-[[3-(4-fluorophenoxy)azetidin-1-yl]methyl]-3-phenyl-7h-imidazo[1,5-a]pyrazin-8-one] | 16 | 

Now from value to compound:

IC50 [1] [nM] | IC50 [nM] | SMILES
177 |  | O=c1[nH]c(CN2CC(Oc3ccccc3)C2)cn2c(-c3ccc(F)cc3)ncc12 [Compound 73, 3-(4-fluorophenyl)-6-[(3-phenoxyazetidin-1-yl)methyl]-7h-imidazo[1,5-a]pyrazin-8-one]
5 |  | CC(c1cn2c(C3CCCC3)ncc2c(=O)[nH]1)N1CC(c2ccc(F)cc2)C1 (stereo not drawn) [Compound 40, 3-cyclopentyl-6-[1-[3-(4-fluorophenyl)azetidin-1-yl]ethyl]-7h-imidazo[1,5-a]pyrazin-8-one]
 | 16 | CCc1ccc(C2CN(C(C)c3cn4c(-c5ccccc5)ncc4c(=O)[nH]3)C2)cc1 (stereo not drawn) [Compound 30, 6-[1-[3-(4-ethylphenyl)azetidin-1-yl]ethyl]-3-phenyl-7h-imidazo[1,5-a]pyrazin-8-one]
32 |  | N#Cc1ccc(C2CN(Cc3cn4c(C5CCOCC5)ncc4c(=O)[nH]3)C2)cc1 [Compound 106, 4-[1-[(8-oxo-3-tetrahydropyran-4-yl-7h-imidazo[1,5-a]pyrazin-6-yl)methyl]azetidin-3-yl]benzonitrile]
90 |  | COC1CN(Cc2cn3c(-c4ccccc4)ncc3c(=O)[nH]2)C1 [Compound 3, 6-[(3-methoxyazetidin-1-yl)methyl]-3-phenyl-7h-imidazo[1,5-a]pyrazin-8-one]
19 |  | CC1CN(Cc2ncccn2)CC1c1cn2c(C3CCOCC3)ncc2c(=O)[nH]1 (stereo not drawn) [Compound 90, 6-[4-methyl-1-(pyrimidin-2-ylmethyl)pyrrolidin-3-yl]-3-tetrahydropyran-4-yl-7h-imidazo[1,5-a]pyrazin-8-one]
 | 12 | N#Cc1cccc(OC2CN(Cc3cn4c(C5CCOCC5)ncc4c(=O)[nH]3)C2)c1 [Compound 94, 3-[1-[(8-oxo-3-tetrahydropyran-4-yl-7h-imidazo[1,5-a]pyrazin-6-yl)methyl]azetidin-3-yl]oxybenzonitrile]
28 |  | O=c1[nH]c(CN2CC(Oc3ccc(C(F)(F)F)cc3)C2)cn2c(-c3ccc(F)cc3)ncc12 [Compound 109, 3-(4-fluorophenyl)-6-[[3-[4-(trifluoromethyl)phenoxy]azetidin-1-yl]methyl]-7h-imidazo[1,5-a]pyrazin-8-one]
14 |  | O=c1[nH]c(CN2CC(Oc3ccncc3)C2)cn2c(C3CCOCC3)ncc12 [Compound 82, 6-[[3-(4-pyridyloxy)azetidin-1-yl]methyl]-3-tetrahydropyran-4-yl-7h-imidazo[1,5-a]pyrazin-8-one]
9 |  | Cc1ccc(COC2CN(Cc3cn4c(-c5ccc(F)cc5)ncc4c(=O)[nH]3)C2)cc1 [Compound 113, 3-(4-fluorophenyl)-6-[[3-(p-tolylmethoxy)azetidin-1-yl]methyl]-7h-imidazo[1,5-a]pyrazin-8-one]
41 |  | O=c1[nH]c(CN2CC(Oc3c(F)cccc3F)C2)cn2c(-c3ccc(F)cc3)ncc12 [Compound 121, 6-[[3-(2,6-difluorophenoxy)azetidin-1-yl]methyl]-3-(4-fluorophenyl)-7h-imidazo[1,5-a]pyrazin-8-one]
8 |  | CC(c1cn2c(C3CCCC3)ncc2c(=O)[nH]1)N1CC(Oc2ncccn2)C1 (stereo not drawn) [Compound 42, 3-cyclopentyl-6-[1-(3-pyrimidin-2-yloxyazetidin-1-yl)ethyl]-7h-imidazo[1,5-a]pyrazin-8-one]
 | 50 | Cc1cc(C)nc(OC2CN(Cc3cn4c(-c5ccccc5)ncc4c(=O)[nH]3)C2)n1 [Compound 14, 6-[[3-(4,6-dimethylpyrimidin-2-yl)oxyazetidin-1-yl]methyl]-3-phenyl-7h-imidazo[1,5-a]pyrazin-8-one]
233 |  | O=c1[nH]c(CN2CCC(Oc3ncccn3)C2)cn2c(-c3ccc(F)cc3)ncc12 (stereo not drawn) [Compound 86, 3-(4-fluorophenyl)-6-[(3-pyrimidin-2-yloxypyrrolidin-1-yl)methyl]-7h-imidazo[1,5-a]pyrazin-8-one]
164 |  | O=c1[nH]c(CN2CC(Oc3cccc(F)n3)C2)cn2c(-c3ccc(F)cc3)ncc12 [Compound 60, 3-(4-fluorophenyl)-6-[[3-[(6-fluoro-2-pyridyl)oxy]azetidin-1-yl]methyl]-7h-imidazo[1,5-a]pyrazin-8-one]
19 |  | CC(c1cn2c(-c3ccccc3)ncc2c(=O)[nH]1)N1CC(Oc2ccc(F)cc2)C1 (stereo not drawn) [Compound 26, 6-[1-[3-(4-fluorophenoxy)azetidin-1-yl]ethyl]-3-phenyl-7h-imidazo[1,5-a]pyrazin-8-one]
18 |  | N#Cc1cccc(OC2CN(Cc3cn4c(-c5ccc(F)cc5)ncc4c(=O)[nH]3)C2)c1 [Compound 93, 3-[1-[[3-(4-fluorophenyl)-8-oxo-7h-imidazo[1,5-a]pyrazin-6-yl]methyl]azetidin-3-yl]oxybenzonitrile]
 | 8 | O=c1[nH]c(CN2CC(c3ccccc3)C2)cn2c(C3CCOCC3)ncc12 [Compound 68, 6-[(3-phenylazetidin-1-yl)methyl]-3-tetrahydropyran-4-yl-7h-imidazo[1,5-a]pyrazin-8-one]
4 |  | CC1CN(Cc2ccc(F)cc2)CC1c1cn2c(-c3ccc(F)cc3)nc(Br)c2c(=O)[nH]1 (stereo not drawn) [Compound 100, 1-bromo-3-(4-fluorophenyl)-6-[1-[(4-fluorophenyl)methyl]-4-methyl-pyrrolidin-3-yl]-7h-imidazo[1,5-a]pyrazin-8-one]
 | 22 | CC(C)OC1CN(C(C)c2cn3c(-c4ccc(F)cc4)ncc3c(=O)[nH]2)C1 (stereo not drawn) [Compound 116, 3-(4-fluorophenyl)-6-[1-(3-isopropoxyazetidin-1-yl)ethyl]-7h-imidazo[1,5-a]pyrazin-8-one]
16 |  | O=c1[nH]c(CN2CC(Oc3ccccc3F)C2)cn2c(-c3ccc(F)cc3)ncc12 [Compound 49, 6-[[3-(2-fluorophenoxy)azetidin-1-yl]methyl]-3-(4-fluorophenyl)-7h-imidazo[1,5-a]pyrazin-8-one]
